These results are taken from patent publication US11059778B2, “Cannabinoid receptor CB2 ligand 4-(aminomethyl)-N, N-dialkylanilines” (UNIVERSITY OF PITTSBURGH—OF THE COMMONWEALTH SYSTEM OF …, priority 2015, dated 2021).

One may read the Ki as a dissociation constant, usually derived from enzyme kinetics or from competition with a known ligand. Low readings indicate a stronger hold on the target, high ones a looser hold on the target.

Assay [1] addresses T1, human CB2 receptors (Homo sapiens, UniProt P34972).
T1 construct: expressed in transfected cells
Description: [3H]CP-55,940 radioligand competition binding assay, CB2. To be noted: for Ki: CHO cell membranes, [3H]CP-55,940 displacement. The protocol:
(§1) Binding assay. The bioassay is carried out using the Perkin Elmer 96-well Top Counter. This bioassay is also known as a competition binding assay and the biological evaluation is to determine the CB receptor binding affinity (Ki) of the screened ligands by displacing [^3H]-CP-55940 (or other radioligands). The brief procedure is given below.
(§2) Perkin Elmer 96-well TopCounter is used at PMLSC and in our laboratory to determine the CB receptor binding affinity (Ki) of the in-silico screened ligands by displacing [^3H]-CP-55,940 (or other radioligands). In competition binding experiments, the tested compound dilutions are carried out in triplicate in TME buffer (25 mM Tris, 5 mM MgCl2, 1 mM EDTA) containing 0.1% (w/v) fatty acid free bovine serum albumin (BSA), pH 7.4. Various concentrations of the tested compound are added in the same volume to 0.5 nM [^3H]CP-55,940. TME buffer and cell membrane preparations expressing CB receptors (2.5 μg per well) are added to a final volume of 200 μL. For the saturation binding experiments, varying concentrations of [^3H]CP-55,940 (0.05-1.5 nM) with or without 2 μM of unlabeled ligands (CP-55,940 or WIN-55,212-2) are incubated with the receptor membrane preparations to determine Kd and nonspecific binding. After the binding suspensions are incubated at 30° C. for 1 hr, the reaction is terminated by rapid filtration through microfiltration plates coated with 0.5% polyethylenimine (Unifilter GF/B filterplate, PerkinElmer) followed by 5 washes with ice cold TME buffer containing 0.5% BSA on a Packard Filtermate Harvester (PerkinElmer). The plates are then dried overnight and 30 μl MicroScint 0 scintillation cocktail are added to each well of the dried filter plates. Then the bound radioactivity is counted using a Perkin Elmer 96-well TopCounter. The Ki is calculated by using nonlinear regression analysis (Prism 5; GraphPad Software Inc., San Diego, Calif.), with the Kd values for [^3H]CP-55,940 determined from saturation binding experiments. This assay is used for determining binding affinity parameters (Ki) of ligand-receptor interactions for the CB receptor.
(§3) The affinities of the synthesized ligands were determined in radioligand binding studies at human CB1 and CB2 receptors using [3H](—)-cis-3-[2-hydroxy-4-(1,1 dimethylheptyl)phenyl]-trans-4-(3-hydroxypropyl) cyclohexanol (CP55,940) as a CB receptor radioligand. As a source for human CB1 and CB2 receptors, membrane preparations of Chinese hamster ovary (CHO) cells stably expressing the respective receptor subtype were utilized (50 μg of protein/vial). CB2 selective ligand SR144528 (CB2 inverse agonist) and CB1 ligand SR141716 (CB1 inverse agonist) were used as positive controls, respectively, along with the tested compounds in bioassays experiments. Only compounds with high CB2 receptor binding potency was chosen to carry out the CB1 binding assay. CB ligand competition binding assay was carried out as described previously in Gertsch, J., et al., Beta-caryophyllene is a dietary cannabinoid. Proc Natl Acad Sci USA 2008, 105 (26), 9099-104. Briefly, non-radioactive (or cold) ligands (synthesized derivatives and reference ligands) were diluted in a binding buffer (50 mM Tris-HCl (pH 7.4), 5 mM MgC12, 2.5 mM EGTA, and 0.1% (w/v) fatty acid free BSA), supplemented with 10% dimethyl sulfoxide and 0.4% methyl cellulose. Each assay plate well contained a total of 200 μL of reaction mixture composed of 5 μg of CB1 (or 2.5 μg CB2) membrane protein, labeled [3H]-CP-55,940 ligand at a final concentration of 2.5 nM, and the unlabeled ligand at its varying dilutions as stated above. Plates were incubated at 30° C. for 1 hour with gentle shaking.
(§4) The reaction was terminated by rapid filtration through Unifilter GF/B filter plates using a Unifilter Cell Harvester (PerkinElmer). After the plate was allowed to dry overnight, 30 μL MicroScint-0 cocktail (PerkinElmer) was added to each well, and the radioactivity was counted using a PerkinElmer TopCounter. […]
For orientation: Displacement assays read how much labelled ligand stays bound in the presence of the test substance.

The target of assay [2] is T2, human CB1 receptors (Homo sapiens, UniProt P21554).
T2 construct: expressed in transfected cells
T2 sequence (P21554 whole entry): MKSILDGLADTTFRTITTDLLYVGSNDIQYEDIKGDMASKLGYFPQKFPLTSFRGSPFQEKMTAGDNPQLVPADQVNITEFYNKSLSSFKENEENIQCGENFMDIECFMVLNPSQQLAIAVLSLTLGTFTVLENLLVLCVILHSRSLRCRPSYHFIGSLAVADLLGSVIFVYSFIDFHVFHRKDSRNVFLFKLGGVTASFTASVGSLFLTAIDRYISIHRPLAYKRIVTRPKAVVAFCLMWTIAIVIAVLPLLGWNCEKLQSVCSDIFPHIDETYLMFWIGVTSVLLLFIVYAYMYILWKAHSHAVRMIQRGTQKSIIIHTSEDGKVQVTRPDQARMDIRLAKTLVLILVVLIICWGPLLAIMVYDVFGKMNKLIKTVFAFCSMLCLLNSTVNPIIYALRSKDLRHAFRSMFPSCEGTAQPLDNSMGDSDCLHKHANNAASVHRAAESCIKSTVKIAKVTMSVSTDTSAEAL
Put plainly: [3H]CP-55,940 radioligand competition binding assay, CB1. To be noted: CHO cell membranes, [3H]CP-55,940 displacement. As to the method: as §1, §2, §3, §4

Where only a bound is given, the exact number is not on record here.

T1 sequence (P34972 whole entry): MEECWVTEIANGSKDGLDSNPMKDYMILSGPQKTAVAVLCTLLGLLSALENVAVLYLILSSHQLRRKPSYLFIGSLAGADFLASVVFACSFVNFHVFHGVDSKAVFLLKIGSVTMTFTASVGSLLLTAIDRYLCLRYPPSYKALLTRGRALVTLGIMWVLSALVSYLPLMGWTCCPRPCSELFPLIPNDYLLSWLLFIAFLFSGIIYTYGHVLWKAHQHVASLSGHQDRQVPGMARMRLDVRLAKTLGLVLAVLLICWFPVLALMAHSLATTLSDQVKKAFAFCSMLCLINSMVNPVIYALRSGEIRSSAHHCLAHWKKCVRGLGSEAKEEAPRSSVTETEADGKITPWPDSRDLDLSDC

Consider `CCN(CC)c1ccc(CN(Cc2cccnc2)S(=O)(=O)/C=C/c2ccccc2)cc1` [Compound 23, (E)-N-(4-(diethylamino)benzyl)-2-phenyl-N-(pyridin-3-ylmethyl)ethene-1-sulfonamide], for which, in assay [1], the “SI: selectivity index for CB2, calculated as Ki(CB1)/Ki(CB2) ratio” value is 6 and the inhibitory constant (Ki) came to 899 nM. In assay [2], this molecule showed an inhibition constant Ki of 5460 nM.

For the molecule `CCN(CC)c1ccc(CN(Cc2cccnc2)S(=O)(=O)c2ccc3ccccc3c2)cc1` [Compound 24, N-(4-(diethylamino)benzyl)-N-(pyridin-3-ylmethyl)naphthalene-2-sulfonamide], in assay [1], the “SI: selectivity index for CB2, calculated as Ki(CB1)/Ki(CB2) ratio” value is recorded as 14 and the affinity, expressed as Ki, was 866 nM. Also, the affinity in assay [2] corresponds to a Ki of 12000 nM.

For the molecule `CCN(CC)c1ccc(CN(Cc2ccc3c(c2)OCO3)S(=O)(=O)/C=C/c2ccccc2)cc1` [Compound 29, (E)-N-(benzo[d][1,3]dioxol-5-ylmethyl)-N-(4-(diethylamino)benzyl)-2-phenylethene-1-sulfonamide], in assay [1], the “SI: selectivity index for CB2, calculated as Ki(CB1)/Ki(CB2) ratio” value was 3. Moreover, the inhibition constant Ki in assay [1] came to 381 nM; in assay [2] it was 1160 nM.

Regarding `CCN(CC)c1ccc(CN(Cc2cc(OC)c(OC)c(OC)c2)S(=O)(=O)c2ccc(OC)cc2)cc1` [Compound 4, N-(4-(diethylamino)benzyl)-4-methoxy-N-(3,4,5-trimethoxybenzyl)benzenesulfonamide], in assay [1], the “SI: selectivity index for CB2, calculated as Ki(CB1)/Ki(CB2) ratio” value is given as 50 and the affinity, expressed as Ki, was 410 nM. In assay [2], the inhibition constant Ki is above 20000 nM and the “Ki (CB1)” value is reported as “no CB1 binding affinity”.

Consider `CCCCCN(Cc1ccc(N(CC)CC)cc1)S(=O)(=O)/C=C/c1ccccc1` [Compound 37, (E)-N-(4-(diethylamino)benzyl)-N-pentyl-2-phenylethene-1-sulfonamide], for which, in assay [1], the “SI: selectivity index for CB2, calculated as Ki(CB1)/Ki(CB2) ratio” value is given as 10 and the inhibition constant Ki was determined as 515 nM. In assay [2], this molecule showed an inhibition constant Ki of 5240 nM.

As to `CCN(CC)c1ccc(CN(Cc2cc(OC)c(OC)c(OC)c2)S(=O)(=O)c2ccccc2)cc1` [Compound 7, N-(4-(diethylamino)benzyl)-N-(3,4,5-trimethoxybenzyl)benzenesulfonamide], in assay [1], the “SI: selectivity index for CB2, calculated as Ki(CB1)/Ki(CB2) ratio” value is listed as 44 and the affinity, expressed as Ki, was 453 nM. For the same molecule, in assay [2], the Ki is above 20000 nM and the “Ki (CB1)” value is recorded as “no affinity”.

The molecule `CCN(CC)c1ccc(CNCc2cc(OC)c(OC)c(OC)c2)cc1` [Compound 3, N,N-diethyl-4-(((3,4,5-trimethoxybenzyl)amino)methyl)aniline] gave an inhibition constant Ki in assay [1] of 42300 nM. This counts as double-digit micromolar.

As for `CCN(CC)c1ccc(CNCc2ccc3c(c2)OCO3)cc1` [Compound 28, 4-(((benzo[d][1,3]dioxol-5-ylmethyl)amino)methyl)-N,N-diethylaniline], the inhibitory constant (Ki) in assay [1] is above 20000 nM.

On to `CCN(CC)c1ccc(CN(Cc2cc(OC)c(OC)c(OC)c2)S(=O)(=O)c2ccccc2C)cc1` [Compound 14, N-(4-(diethylamino)benzyl)-2-methyl-N-(3,4,5-trimethoxybenzyl)benzenesulfonamide], for which, in assay [1], the “SI: selectivity index for CB2, calculated as Ki(CB1)/Ki(CB2) ratio” value is recorded as 2 and the affinity, expressed as Ki, was 157 nM. For the same molecule, the affinity in assay [2], expressed as Ki, was 180 nM.

In assay [1], `CCCCCN(Cc1ccc(N(CC)CC)cc1)S(=O)(=O)c1ccc(-c2ccccc2)cc1` [Compound 42, N-(4-(diethylamino)benzyl)-N-pentyl-[1,1′-biphenyl]-4-sulfonamide] gave an inhibition constant Ki of 3150 nM.

Turning to `CCCCCN(Cc1ccc(N(CC)CC)cc1)C(=O)c1cccs1` [Compound 40, N-(4-(diethylamino)benzyl)-N-pentylthiophene-2-carboxamide], in assay [1], the “SI: selectivity index for CB2, calculated as Ki(CB1)/Ki(CB2) ratio” value is recorded as 7 and the Ki stood at 362 nM. The affinity in assay [2] corresponds to a Ki of 2440 nM.

Consider `CCN(CC)c1ccc(CN(Cc2cc(OC)c(OC)c(OC)c2)S(=O)(=O)c2cccs2)cc1` [Compound 16, N-(4-(diethylamino)benzyl)-N-(3,4,5-trimethoxybenzyl)thiophene-2-sulfonamide], for which, in assay [1], the “SI: selectivity index for CB2, calculated as Ki(CB1)/Ki(CB2) ratio” value is listed as 32 and the Ki is 639 nM. In addition, the Ki in assay [2] was above 20000 nM.

In the case of `CCN(CC)c1ccc(CN(Cc2cc(OC)c(OC)c(OC)c2)S(=O)(=O)c2ccc(-c3ccccc3)cc2)cc1` [Compound 10, N-(4-(diethylamino)benzyl)-N-(3,4,5-trimethoxybenzyl)-[1,1′-biphenyl]-4-sulfonamide], in assay [1], the “SI: selectivity index for CB2, calculated as Ki(CB1)/Ki(CB2) ratio” value is 62 and the Ki came to 322 nM. The inhibition constant (Ki) in assay [2] is above 20000 nM.

In assay [1], `CCN(CC)c1ccc(CN(Cc2cc(OC)c(OC)c(OC)c2)S(=O)(=O)c2ccc(OC)c(OC)c2)cc1` [Compound 17, N-(4-(diethylamino)benzyl)-3,4-dimethoxy-N-(3,4,5-trimethoxybenzyl)benzenesulfonamide] yielded a Ki of 657 nM.

Regarding `CCN(CC)c1ccc(CN(Cc2cc(OC)c(OC)c(OC)c2)S(=O)(=O)c2ccc(C)cc2)cc1` [Compound 6, N-(4-(diethylamino)benzyl)-4-methyl-N-(3,4,5-trimethoxybenzyl)benzenesulfonamide], the “SI: selectivity index for CB2, calculated as Ki(CB1)/Ki(CB2) ratio” value in assay [1] is on record as 2. Moreover, the values for the Ki in assay [1] and in assay [2] were 387 nM and 774 nM, respectively.

In assay [1], `CCN(CC)c1ccc(CNCc2cccnc2)cc1` [Compound 20, N,N-diethyl-4-(((pyridin-3-ylmethyl)amino)methyl)aniline] had an inhibition constant (Ki) above 20000 nM.

In assay [1], `CCN(CC)c1ccc(CN(Cc2cccnc2)C(=O)c2cccs2)cc1` [Compound 21, N-(4-(diethylamino)benzyl)-N-(pyridin-3-ylmethyl)thiophene-2-carboxamide] had a Ki of 1020 nM.

As for `CCN(CC)c1ccc(CN(Cc2cccnc2)S(=O)(=O)c2ccc(-c3ccccc3)cc2)cc1` [Compound 25, N-(4-(diethylamino)benzyl)-N-(pyridin-3-ylmethyl)-[1,1′-biphenyl]-4-sulfonamide], in assay [1], the “SI: selectivity index for CB2, calculated as Ki(CB1)/Ki(CB2) ratio” value was 21 and the inhibition constant Ki is 946 nM. The molecule also returned a Ki in assay [2] above 20000 nM.

As to “4-(((benzo[d][1,3]dioxol-5-ylmethyl)(quinoxalin-2-ylmethyl)amino)methyl)-N,N-diethylaniline [Compound 31]”, in assay [1], the “SI: selectivity index for CB2, calculated as Ki(CB1)/Ki(CB2) ratio” value is 2 and the inhibitory constant (Ki) worked out at 775 nM. In assay [2], this molecule had a Ki of 1270 nM.

Consider `CCN(CC)c1ccc(CN(Cc2cc(OC)c(OC)c(OC)c2)S(=O)(=O)c2ccc(C(C)C)cc2)cc1` [Compound 8, N-(4-(diethylamino)benzyl)-4-isopropyl-N-(3,4,5-trimethoxybenzyl)benzenesulfonamide], for which the Ki in assay [1] was determined as 230 nM; in assay [2] it was 122 nM.

The molecule `CCN(CC)c1ccc(CN(Cc2ccc3c(c2)OCO3)S(=O)(=O)c2ccc3ccccc3c2)cc1` [Compound 33, N-(benzo[d][1,3]dioxol-5-ylmethyl)-N-(4-(diethylamino)benzyl)naphthalene-2-sulfonamide] showed a Ki in assay [1] of 882 nM.

Molecule `CCCCCNCc1ccc(N(CC)CC)cc1` [Compound 36, N,N-diethyl-4-((pentylamino)methyl)aniline] returned a Ki in assay [1] of 40200 nM.

In the case of `CCN(CC)c1ccc(CN(Cc2cccnc2)C(=O)c2cnc3ccccc3n2)cc1` [Compound 22, N-(4-(diethylamino)benzyl)-N-(pyridin-3-ylmethyl)quinoxaline-2-carboxamide], the Ki in assay [1] is 1200 nM.

As for `CCN(CC)c1ccc(CN(Cc2ccc3c(c2)OCO3)S(=O)(=O)c2ccc(-c3ccccc3)cc2)cc1` [Compound 34, N-(benzo[d][1,3]dioxol-5-ylmethyl)-N-(4-(diethylamino)benzyl)-[1,1′-biphenyl]-4-sulfonamide], the affinity in assay [1] corresponds to a Ki of 2000 nM.
